Measured values reported in PubChem BioAssay AID1963866 (Molecular Pharmacology Branch, DTP, NCI, 2024).

Tested on: PDC KRAS tumor spheroids with HUVEC/MSC, viability
Test: Anticancer human tumor 349418-098-R-PDC patient-derived lung adenocarcinoma cell line growth inhibition [KRAS2]
Conditions: for viability, T/C: stronger effect = lower value; active = viability on the fitted dose curve at most 10% of control; inactive = the rest
Summary of the method: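 KRAS-mutant tumor cells were grown as spheroids with HUVEC endothelial cells and human MSCs as stroma. Targeted agents were tested alone and with KRAS pathway inhibitors. Doses started at or near clinical Cmax, or 10 microM, descending half-log.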

[1] = curve of first compound, second compound 0.1 µM
[2] = curve of first compound, second compound 0.316 µM
[3] = curve of first compound, second compound 1 µM
[4] = curve of first compound, second compound 3.16 µM
[5] = second compound 0.1 µM, first compound 0.000316 µM
[6] = second compound 0.1 µM, first compound 0.001 µM
[7] = second compound 0.1 µM, first compound 0.00316 µM
[8] = second compound 0.1 µM, first compound 0.01 µM
[9] = second compound 0.1 µM, first compound 0.0316 µM
[10] = second compound 0.1 µM, first compound 0.1 µM
[11] = second compound 0.316 µM, first compound 0.000316 µM
[12] = second compound 0.316 µM, first compound 0.001 µM
[13] = second compound 0.316 µM, first compound 0.00316 µM
[14] = second compound 0.316 µM, first compound 0.01 µM
[15] = second compound 0.316 µM, first compound 0.0316 µM
[16] = second compound 0.316 µM, first compound 0.1 µM
[17] = second compound 1 µM, first compound 0.000316 µM
[18] = second compound 1 µM, first compound 0.001 µM
[19] = second compound 1 µM, first compound 0.00316 µM
[20] = second compound 1 µM, first compound 0.01 µM
[21] = second compound 1 µM, first compound 0.0316 µM
[22] = second compound 1 µM, first compound 0.1 µM
[23] = second compound 3.16 µM, first compound 0.000316 µM
[24] = second compound 3.16 µM, first compound 0.001 µM
[25] = second compound 3.16 µM, first compound 0.00316 µM
[26] = second compound 3.16 µM, first compound 0.01 µM
[27] = second compound 3.16 µM, first compound 0.0316 µM
[28] = second compound 3.16 µM, first compound 0.1 µM
[29] = curve of first compound, second compound 10 µM
[30] = second compound 10 µM, first compound 0.000316 µM
[31] = second compound 10 µM, first compound 0.001 µM
[32] = second compound 10 µM, first compound 0.00316 µM
[33] = second compound 10 µM, first compound 0.01 µM
[34] = second compound 10 µM, first compound 0.0316 µM
[35] = second compound 10 µM, first compound 0.1 µM
[36] = second compound 0.1 µM, first compound 0.316 µM
[37] = second compound 0.1 µM, first compound 1 µM
[38] = second compound 0.1 µM, first compound 3.16 µM
[39] = second compound 0.1 µM, first compound 10 µM
[40] = second compound 0.316 µM, first compound 0.316 µM
[41] = second compound 0.316 µM, first compound 1 µM
[42] = second compound 0.316 µM, first compound 3.16 µM
[43] = second compound 0.316 µM, first compound 10 µM
[44] = second compound 1 µM, first compound 0.316 µM
[45] = second compound 1 µM, first compound 1 µM
[46] = second compound 1 µM, first compound 3.16 µM
[47] = second compound 1 µM, first compound 10 µM
[48] = second compound 3.16 µM, first compound 0.316 µM
[49] = second compound 3.16 µM, first compound 1 µM
[50] = second compound 3.16 µM, first compound 3.16 µM
[51] = second compound 3.16 µM, first compound 10 µM
[52] = second compound 10 µM, first compound 0.316 µM
[53] = second compound 10 µM, first compound 1 µM
[54] = second compound 10 µM, first compound 3.16 µM
[55] = second compound 10 µM, first compound 10 µM
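Note: spheroids exposed to compounds for seven days before readout.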

CN(C)C/C=C/C(=O)Nc1cc2c(Nc3ccc(F)c(Cl)c3)ncnc2cc1O[C@H]1CCOC1 + C=CC(=O)N1CCN(c2nc(OCC3CCCN3C)nc3c2CCN(c2cccc4cccc(C)c24)C3)CC1CC#N
< 0.316 nM: IC50 [4]
active: viability, T/C [23] 0.17% | viability, T/C [24] 0.19% | viability, T/C [25] 0.17% | viability, T/C [26] 0.17% | viability, T/C [27] 1.41% | viability, T/C [28] 0.2%
> 100 nM: IC50 (curve of first compound, second compound 0.0316 µM) | IC50 [1] | IC50 [2] | IC50 [3]
inactive: viability, T/C (second compound 0.0316 µM, first compound 0.000316 µM) 102% | viability, T/C (second compound 0.0316 µM, first compound 0.001 µM) 101% | viability, T/C (second compound 0.0316 µM, first compound 0.00316 µM) 85% | viability, T/C (second compound 0.0316 µM, first compound 0.01 µM) 105% | viability, T/C (second compound 0.0316 µM, first compound 0.0316 µM) 102% | viability, T/C (second compound 0.0316 µM, first compound 0.1 µM) 87.2% | viability, T/C [5] 101% | viability, T/C [6] 109% | viability, T/C [7] 86.3% | viability, T/C [8] 92.9% | viability, T/C [9] 83.8% | viability, T/C [10] 83.9% | viability, T/C [11] 99.9% | viability, T/C [12] 99.8% | viability, T/C [13] 94.6% | viability, T/C [14] 94.9% | viability, T/C [15] 82.1% | viability, T/C [16] 84.4% | viability, T/C [17] 84.5% | viability, T/C [18] 75.2% | viability, T/C [19] 65.9% | viability, T/C [20] 69.4% | viability, T/C [21] 77.4% | viability, T/C [22] 58.3%

C=CC(=O)N1CCN(c2nc(=O)n(-c3c(C)ccnc3C(C)C)c3nc(-c4c(O)cccc4F)c(F)cc23)C(C)C1 (stereo not drawn)
5.54 µM [middle of 5 runs]: IC50 (compound alone, run of 07/19/2021)
6.3 µM [middle of 6 runs]: IC50 (compound alone, run of 07/26/2021)
inactive: viability, T/C (compound 10 µM) 37.2% [middle of 17 runs]

CN(C)C/C=C/C(=O)Nc1cc2c(Nc3ccc(F)c(Cl)c3)ncnc2cc1O[C@H]1CCOC1 + CNCc1ccccc1-c1csc(C(C)Nc2nc(C)nc3cc(OC)c(OC)cc23)c1
> 100 nM: IC50 [1] | IC50 [2] | IC50 [3]
inactive: viability, T/C [5] 105% | viability, T/C [6] 108% | viability, T/C [7] 102% | viability, T/C [8] 97% | viability, T/C [9] 108% | viability, T/C [10] 91.5% | viability, T/C [11] 98.2% | viability, T/C [12] 103% | viability, T/C [13] 103% | viability, T/C [14] 99.9% | viability, T/C [15] 97.8% | viability, T/C [16] 91.2% | viability, T/C [17] 107% | viability, T/C [18] 104% | viability, T/C [19] 87.7% | viability, T/C [20] 94.2% | viability, T/C [21] 84.9% | viability, T/C [22] 95.4%
< 0.316 nM: IC50 [4] | IC50 [29]
active: viability, T/C [23] 0.27% | viability, T/C [24] 0.17% | viability, T/C [25] 0.19% | viability, T/C [26] 0.41% | viability, T/C [27] 0.63% | viability, T/C [28] 0.26% | viability, T/C [30] 0.08% | viability, T/C [31] 0.07% | viability, T/C [32] 0.07% | viability, T/C [33] 0.08% | viability, T/C [34] 0.08% | viability, T/C [35] 0.13%

CC(=O)Nc1cccc(-n2c(=O)n(C3CC3)c(=O)c3c(Nc4ccc(I)cc4F)n(C)c(=O)c(C)c32)c1 + C=CC(=O)N1CCN(c2nc(=O)n(-c3c(C)ccnc3C(C)C)c3nc(-c4c(O)cccc4F)c(F)cc23)C(C)C1
< 0.1 nM: IC50 [1] | IC50 [2] | IC50 [3] | IC50 [4] | IC50 [29]
active: viability, T/C [15] 9.88% | viability, T/C [21] 8.89% | viability, T/C [34] 9.82%
inactive: viability, T/C (second compound 0.1 µM, first compound 0.0001 µM) 48.6% | viability, T/C [5] 21.9% | viability, T/C [6] 20.4% | viability, T/C [7] 17.6% | viability, T/C [8] 11% | viability, T/C [9] 7.55% | viability, T/C (second compound 0.316 µM, first compound 0.0001 µM) 34.9% | viability, T/C [11] 31.2% | viability, T/C [12] 25.3% | viability, T/C [13] 19.1% | viability, T/C [14] 11.8% | viability, T/C (second compound 1 µM, first compound 0.0001 µM) 39.4% | viability, T/C [17] 34.8% | viability, T/C [18] 23.4% | viability, T/C [19] 19.3% | viability, T/C [20] 13.4% | viability, T/C (second compound 3.16 µM, first compound 0.0001 µM) 39.5% | viability, T/C [23] 29% | viability, T/C [24] 22% | viability, T/C [25] 20.9% | viability, T/C [26] 13% | viability, T/C [27] 10% | viability, T/C (second compound 10 µM, first compound 0.0001 µM) 25.4% | viability, T/C [30] 17.4% | viability, T/C [31] 18.2% | viability, T/C [32] 15.9% | viability, T/C [33] 10.7%

CCNC(=O)CC1N=C(c2ccc(Cl)cc2)c2cc(OC)ccc2-n2c(C)nnc21 (stereo not drawn) + C=CC(=O)N1CCN(c2nc(=O)n(-c3c(C)ccnc3C(C)C)c3nc(-c4c(O)cccc4F)c(F)cc23)C(C)C1
< 31.6 nM: IC50 [29]
inactive: viability, T/C [9] 84.2% | viability, T/C [10] 55.5% | viability, T/C [36] 31.9% | viability, T/C [37] 11.2% | viability, T/C [15] 83% | viability, T/C [16] 54% | viability, T/C [40] 37% | viability, T/C [41] 11.2% | viability, T/C [21] 78.3% | viability, T/C [22] 60.4% | viability, T/C [44] 41.4% | viability, T/C [45] 6.68% | viability, T/C [27] 69.9% | viability, T/C [28] 52.9% | viability, T/C [48] 37.9% | viability, T/C [49] 9.47% | viability, T/C [34] 44.4% | viability, T/C [35] 28.8%
133 nM: IC50 [1]
140 nM: IC50 [4]
185 nM: IC50 [3]
139 nM: IC50 [2]
active: viability, T/C [38] 1.81% | viability, T/C [39] 0.76% | viability, T/C [42] 1.1% | viability, T/C [43] 0.76% | viability, T/C [46] 2.48% | viability, T/C [47] 0.75% | viability, T/C [50] 2.07% | viability, T/C [51] 0.56% | viability, T/C [52] 6.81% | viability, T/C [53] 2.7% | viability, T/C [54] 1.1% | viability, T/C [55] 0.62%

CC(C)NCC(C(=O)N1CCN(c2ncnc3c2C(C)CC3O)CC1)c1ccc(Cl)cc1 (stereo not drawn) + CC1OCC2(CCN(c3cnc(Sc4ccnc(N)c4Cl)c(N)n3)CC2)C1N
270 nM: IC50 [1]
inactive: viability, T/C [9] 98.9% | viability, T/C [10] 78.6% | viability, T/C [36] 42.5% | viability, T/C [37] 25.8% | viability, T/C [38] 13.9% | viability, T/C [15] 100% | viability, T/C [16] 77.7% | viability, T/C [40] 43% | viability, T/C [41] 25.9% | viability, T/C [42] 14.5% | viability, T/C [21] 98.2% | viability, T/C [22] 85.1% | viability, T/C [44] 61.7% | viability, T/C [45] 28.7% | viability, T/C [46] 17.4% | viability, T/C [27] 92.8% | viability, T/C [28] 80.4% | viability, T/C [48] 51.8% | viability, T/C [49] 26.4% | viability, T/C [50] 19.8% | viability, T/C [51] 7.52% | viability, T/C [34] 87.1% | viability, T/C [35] 83.6% | viability, T/C [52] 51.5% | viability, T/C [53] 31% | viability, T/C [54] 15.3%
271 nM: IC50 [2]
358 nM: IC50 [4]
active: viability, T/C [39] 7.23% | viability, T/C [43] 6.51% | viability, T/C [47] 7.82% | viability, T/C [55] 7.92%
472 nM: IC50 [3]
401 nM: IC50 [29]
